The test system of series [1] is mood stabilisation or epileptic symptoms or events. To be noted: cited from earlier work.
For series [2], the system named is patients with Alzheimer's type dementia. The experiment in a line: Case reports, Mild Cognitive Impairment (MCI) and Dementia (Example 1). In kind it is in vivo, human. To be noted: Patient 1B, 7 year history of Alzheimer's type dementia. The source says: Patient 1A was an elderly person with history of impairment of cognitive function. Presumptive diagnosis of possible dementia of Alzheimers type.
Patient 1B was an elderly retired person with a 7 year history of Alzheimer's type dementia treated with the cholinesterase inhibitor Donepezil. […] Their cognitive function has gradually deteriorated since this time. […] Their reading was more fluent being better able to follow the meaning of the text. There was also improvement in their Stroop Test particularly in part three, the more cognitively demanding where their accuracy improved from 50 to 90%.

Series [3] has as its system patients with autism / ASD / communication disorder. The series can be described thus: Case reports, Autism and other Pervasive Development Disorders (Example 6). Type of series: in vivo, human. The source says: Patient 6A: Adult, diagnosed in childhood with autism and ADHD. A long history of behavioural disturbance with frequent episodes of violence despite treatment with high-dose antipsychotic medication. […] The high-dose antipsychotic medication has been reduced without any associated loss of recent benefit. […] A history of behavioural disturbance and educational impairment. […] Patient 6C was an adult, diagnosed in childhood with autism and ADHD with a history of behavioural disturbance and educational impairment. […] Patient 6D: Adult, diagnosed in childhood with autism, ADHD and antisocial personality traits. […] Patient C's conversation became more appropriate and consistent together with reported improvements in significant relationships. […] Patient 6E was an adult, diagnosed with communication disorder and major depression. […] Patient 6F was an adult with ASD. […] The patient's conversation became more appropriate and consistent and improvements in significant relationships were reported. A reduction in the reliance on alcohol to alleviate anxiety in social situations was observed. […] Sodium valproate was withdrawn and improvement was noted. […] Patient 6G was as adult, diagnosed in childhood with ASD. […] Sodium valproate was withdrawn. […] This has also been associated with improvements in reading and verbal understanding. These benefits have been sustained in some situations for three years. Although difficult to be objective, there seems to be good evidence of ongoing improvement. […] Improvements in coordination, in fine and gross motor control have been reported and improvement in gait which frequently is a significant issue for individuals with autistic disorders.

Structures can show the parent of a compound that is named as a salt. Where two headings read alike, the source gives them in different places.

Regarding `CCC1(c2ccc(N)cc2)CCC(=O)NC1=O` (stereo not shown) [Aminoglutethimide], the “Minimum typical dose/day effective for mood stabilisation or treatment of epileptic symptoms or events” value (“Minimum typical dose/day effective” below) in series [1] (per day) is on record as 125 mg. As for `CCC1(c2ccccc2)C(=O)NC(=O)NC1=O.CNC(C)CC1CCCCC1` [Barbexaclone], in series [1] (per day), the “Minimum typical dose/day effective” value was 200 mg in divided doses. As for `CCC[C@@H]1CC(=O)N([C@@H](CC)C(N)=O)C1` [Brivaracetam], in series [1] (per day), the “Minimum typical dose/day effective” value was 100 mg. Consider `NC(=O)N1c2ccccc2C=Cc2ccccc21` [Carbamazepine], for which, in series [1] (per day), the “Minimum typical dose/day effective” value is listed as 400 mg. For the compound `CN1C(=O)CC(=O)N(c2ccccc2)c2cc(Cl)ccc21` [Clobazam], in series [1] (in vivo), the “Minimum typical dose/day effective” value is 5 mg/kg daily. Take `O=C1CN=C(c2ccccc2Cl)c2cc([N+](=O)[O-])ccc2N1` [Clonazepam]: the “Minimum typical dose/day effective” value in series [1] (per day) is 1 mg. For `COc1cc2c(cc1OC)C(=O)C(CC1CCN(Cc3ccccc3)CC1)C2` (stereo not shown) [Donepezil], the “subjective cognitive functioning and ADAS-cog” value in series [2] is “significant improvement in their subjective cognitive functioning”. Consider `CCN1C(=O)OC(C)(C)C1=O` [Ethadione], for which the “Minimum typical dose/day effective” value in series [1] (per day) is listed as 1000 mg. Consider `CCC1(C)CC(=O)NC1=O` (stereo not shown) [Ethosuximide], for which, in series [1] (per day), the “Minimum typical dose/day effective” value was 1000 mg. In the case of `CCN1C(=O)NC(c2ccccc2)C1=O` (stereo not shown) [Ethotoin], in series [1] (per day), the “Minimum typical dose/day effective” value was 1000 mg. In the case of `NC(=O)OCC(COC(N)=O)c1ccccc1` [Felbamate], the “Minimum typical dose/day effective” value in series [1] (per day) was 1200 mg. In the case of `O=C1NC(c2ccccc2)(c2ccccc2)C(=O)N1COP(=O)(O)O` [Fosphenytoin Sodium], the “Minimum typical dose/day effective” value in series [1] (per day) is on record as 10 mg/kg. Take `NCC1(CC(=O)O)CCCCC1` [Gabapentin, 2-[1-(aminomethyl)cyclohexyl]acetic acid]: the “Minimum typical dose/day effective” value in series [1] (per day) is recorded as 900 mg. For the compound `COC[C@@H](NC(C)=O)C(=O)NCc1ccccc1` [Lacosamide], in series [1] (per day), the “Minimum typical dose/day effective” value is 200 mg. With `Nc1nnc(-c2cccc(Cl)c2Cl)c(N)n1` [Lamotrigine, 3,5-diamino-6-(2,3-dichlorophenyl)-1,2,4-triazine], the “Minimum typical dose/day effective” value in series [1] (per day) is given as 100 mg.

For the compound `CC[C@@H](C(N)=O)N1CCCC1=O` [Levetiracetam], in series [1] (per day), the “Minimum typical dose/day effective” value is listed as 1000 mg. On to `COC1=CC(=O)OC1C(O)c1ccccc1Cl` (stereo not shown) [Losigamone], for which the “Minimum typical dose/day effective” value in series [1] (per day) is reported as 1500 mg.

For `CCC1(c2ccccc2)NC(=O)N(C)C1=O` (stereo not shown) [Mephenytoin], the “Minimum typical dose/day effective” value in series [1] (per day) is given as 200 mg. As to `CCC1(c2ccccc2)NC(=O)N(C)C1=O` (stereo not shown) [Methoin], the “Minimum typical dose/day effective” value in series [1] (per day) was 1000 mg.

Consider `CN1C(=O)CC(C)(c2ccccc2)C1=O` (stereo not shown) [Methsuximide], for which the “Minimum typical dose/day effective” value in series [1] (per day) is recorded as 300 mg. On to `NC(=O)N1c2ccccc2CC(=O)c2ccccc21` [Oxcarbazepine], for which the “Minimum typical dose/day effective” value in series [1] (per day) is on record as 600 mg. In the case of `CCC1(C)OC(=O)N(C)C1=O` (stereo not shown) [Paramethadione], the “Minimum typical dose/day effective” value in series [1] (per day) is recorded as 300 mg. In the case of `N#Cc1ccccc1-c1cc(-c2ccccn2)cn(-c2ccccc2)c1=O` [Perampanel], in series [1] (per day), the “Minimum typical dose/day effective” value is 2 mg. On to `NC(=O)NC(=O)Cc1ccccc1` [Phenacemide], for which, in series [1] (per day), the “Minimum typical dose/day effective” value is recorded as 500 mg.

As for `CCC(C(=O)NC(N)=O)c1ccccc1` (stereo not shown) [Pheneturide], the “Minimum typical dose/day effective” value in series [1] (per day) is given as 600 mg. Turning to `CN1C(=O)CC(c2ccccc2)C1=O` (stereo not shown) [Phensuximide], in series [1] (per day), the “Minimum typical dose/day effective” value is on record as 1000 mg.

In the case of `CC(C)C[C@H](CN)CC(=O)O` [Pregabalin, (S)-3-(aminomethyl)-5-methylhexanoic acid], in series [1] (per day), the “Minimum typical dose/day effective” value was 300 mg. With `CCC1(c2ccccc2)C(=O)NCNC1=O` [Primidone], the “Minimum typical dose/day effective” value in series [1] (per day) is recorded as 750 mg. As to `NS(=O)(=O)c1ccc(N2CCCCS2(=O)=O)cc1` [Sultiame], in series [1] (per day), the “Minimum typical dose/day effective” value is on record as 200 mg.

Regarding `Cc1ccsc1C(=CCCN1CCC[C@@H](C(=O)O)C1)c1sccc1C` [Tiagabine Hydrochloride], the “Minimum typical dose/day effective” value in series [1] (per day) was 30 mg.

Regarding `CC1(C)O[C@@H]2[C@@H](CO[C@@]3(COS(N)(=O)=O)OC(C)(C)O[C@@H]23)O1` [Topiramate, 2,3:4,5-Bis-O-(1-methylethylidene)-beta-D-fructopyranose sulfamate], the “Minimum typical dose/day effective” value in series [1] (per day) is 100 mg. With `CN1C(=O)OC(C)(C)C1=O` [Trimethadione], the “Minimum typical dose/day effective” value in series [1] (per day) was 900 mg. In the case of `C=CC(N)CCC(=O)O` (stereo not shown) [Vigabatrin], the “Minimum typical dose/day effective” value in series [1] (per day) is given as 1000 mg. For `NS(=O)(=O)Cc1noc2ccccc12` [Zonisamide], in series [1] (per day), the “Minimum typical dose/day effective” value is recorded as 200 mg. As to `CCCC(CCC)C(=O)O.[Na]` [sodium valproate, sodium di-n-propylacetic acid], the “behaviour, verbal and non-verbal communication” value in series [3] (Patient 6, ASD, 50 mg daily) is “significant improvement in behaviour, verbal and non-verbal communication”. The “reintroduction at lower dose” value in series [3] (Patient 6, 25 mg daily) is “successfully reintroduced”. In addition, in series [3] (Patient 6, 50 mg daily), the “adverse effects within three days” value was “increasing cognitive slowing, general malaise and tiredness”. Besides, the communication result in series [3] (Patient 6E, communication disorder and major depression, 50 mg) is listed as “significant improvement in communication”. In addition, the communication result in series [3] (Patient 6E, 25 mg daily) is given as “sustained improvement in the ability to communicate with less effort”. Moreover, the “benefits when medication ceased” value in series [3] (Patient 6E, medication ceased) is reported as “initial benefits were lost”. Also, the “communication, eye contact, motor tics, social engagement” value in series [3] (Patient 6G, 25 mg on alternate days) is “sustained improvement in the communication, eye contact during dialogue, reduction in motor tics and greater social engagement and independently motivated activity”. In series [3] (Patient 6G, 50 mg daily), the “communication and other symptoms of ASD” value is “improvement in communication and other symptoms of ASD”; the side-effects entry is “low mood and irritability”.
